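Values below derive from 48-hour exposures of cells grown in 96-well plates, with endpoints linearly interpolated between the two concentrations bracketing the appropriate inhibition level. Here, GI50 denotes the concentration required for 50% inhibition of growth.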 The source made the active and inactive calls. Cut-off read from the data, not from the text of the source: active = GI50 up to about 1.1 µM and inactive = higher.
What was measured:
Assay in all cases: DTP human tumour cell line panel, 48 h
SK-MEL-2 = test system: SK-MEL-2
MOLT-4 = test system: MOLT-4
A549 = test system: A549
MDA-MB-435 = test system: MDA-MB-435
HT-29 = test system: HT-29
T47D = test system: T47D
A498 = test system: A498
HCT-116 = test system: HCT-116
UO-31 = test system: UO-31
PC-3 = test system: PC-3
MCF7 = test system: MCF7
Hs-578T = test system: Hs-578T
OVCAR-5 = test system: OVCAR-5
IGROV-1 = test system: IGROV-1
K562 = test system: K562
OVCAR-8 = test system: OVCAR-8
SK-OV-3 = test system: SK-OV-3
LOX IMVI = test system: LOX IMVI
SF-539 = test system: SF-539
TK-10 = test system: TK-10
OVCAR-3 = test system: OVCAR-3
OVCAR-4 = test system: OVCAR-4
NCI-H226 = test system: NCI-H226
M14 = test system: M14
RPMI-8226 = test system: RPMI-8226
UACC-257 = test system: UACC-257
786-0 = test system: 786-0
SW-620 = test system: SW-620
SF-295 = test system: SF-295
HCT-15 = test system: HCT-15
CCRF-CEM = test system: CCRF-CEM
NCI-H23 = test system: NCI-H23
MDA-MB-231 = test system: MDA-MB-231
SN12C = test system: SN12C
HL-60 = test system: HL-60
UACC-62 = test system: UACC-62
COLO 205 = test system: COLO 205
CAKI-1 = test system: CAKI-1
SR = test system: SR
SK-MEL-28 = test system: SK-MEL-28
DU-145 = test system: DU-145
HOP-62 = test system: HOP-62
SNB-19 = test system: SNB-19
SK-MEL-5 = test system: SK-MEL-5
ACHN = test system: ACHN
BT-549 = test system: BT-549
NCI/ADR-RES = test system: NCI/ADR-RES
U-251 = test system: U-251
KM12 = test system: KM12
HCC 2998 = test system: HCC 2998
EKVX = test system: EKVX
MDA-N = test system: MDA-N
NCI-H460 = test system: NCI-H460
NCI-H522 = test system: NCI-H522
Malme-3M = test system: Malme-3M
HOP-92 = test system: HOP-92
RXF 393 = test system: RXF 393
SF-268 = test system: SF-268
SNB-75 = test system: SNB-75

CN1C/C(=C\c2cccs2)C2=NN(c3ccccc3)C(c3cccs3)C2C1 (configuration not stated)
GI50 (SK-MEL-2): 25.5 µM (inactive)
GI50 (MOLT-4): 3.4 µM (inactive)
GI50 (A549): 7.33 µM (inactive)
GI50 (MDA-MB-435): 1.61 µM (inactive)
GI50 (HT-29): 3.14 µM (inactive)
GI50 (T47D): 76 µM (inactive)
GI50 (A498): > 27.3 µM (inactive)
GI50 (HCT-116): 2.7 µM (inactive)
GI50 (UO-31): 50 µM (inactive)
GI50 (PC-3): 10.7 µM (inactive)
GI50 (MCF7): 13.3 µM (inactive)
GI50 (Hs-578T): > 100 µM (inactive)
GI50 (OVCAR-5): > 100 µM (inactive)
GI50 (IGROV-1): 4.06 µM (inactive)
GI50 (K562): 3.96 µM (inactive)
GI50 (OVCAR-8): 10.5 µM (inactive)
GI50 (SK-OV-3): > 73.3 µM (inactive)
GI50 (LOX IMVI): 5.08 µM (inactive)
GI50 (SF-539): 17.4 µM (inactive)
GI50 (TK-10): 31.6 µM (inactive)
GI50 (OVCAR-3): 2.79 µM (inactive)
GI50 (OVCAR-4): 4.47 µM (inactive)
GI50 (NCI-H226): > 100 µM (inactive)
GI50 (M14): 3.91 µM (inactive)
GI50 (RPMI-8226): 3.59 µM (inactive)
GI50 (UACC-257): 5.92 µM (inactive)
GI50 (786-0): 3.49 µM (inactive)
GI50 (SW-620): 4.6 µM (inactive)
GI50 (SF-295): 4.95 µM (inactive)
GI50 (HCT-15): 3.78 µM
GI50 (CCRF-CEM): 2 µM (inactive)
GI50 (NCI-H23): > 100 µM (inactive)
GI50 (MDA-MB-231): 21.9 µM (inactive)
GI50 (SN12C): 4.39 µM (inactive)
GI50 (HL-60): 1.59 µM (inactive)
GI50 (UACC-62): > 100 µM (inactive)
GI50 (COLO 205): 5.16 µM (inactive)
GI50 (CAKI-1): > 72.9 µM (inactive)
GI50 (SR): 1.71 µM (inactive)
GI50 (SK-MEL-28): > 100 µM (inactive)
GI50 (DU-145): 5.33 µM (inactive)
GI50 (HOP-62): 11.1 µM (inactive)
GI50 (SNB-19): 5.93 µM (inactive)
GI50 (SK-MEL-5): 11.9 µM (inactive)
GI50 (ACHN): > 34 µM (inactive)
GI50 (BT-549): 17.9 µM (inactive)
GI50 (NCI/ADR-RES): 3.77 µM (inactive)
GI50 (U-251): 12 µM (inactive)
GI50 (KM12): 4.35 µM (inactive)
GI50 (HCC 2998): 6.21 µM (inactive)
GI50 (EKVX): 14.7 µM (inactive)
GI50 (MDA-N): 1.59 µM (inactive)
GI50 (NCI-H460): 3.52 µM (inactive)
GI50 (NCI-H522): 3.43 µM (inactive)

Cn1c(=S)c2nc(SCCN3CCCC3)[nH]c2n(C)c1=O
GI50 (SK-MEL-2): > 100 µM (inactive)
GI50 (MOLT-4): > 100 µM (inactive)
GI50 (A549): > 100 µM (inactive)
GI50 (MDA-MB-435): > 100 µM (inactive)
GI50 (HT-29): > 100 µM (inactive)
GI50 (T47D): > 100 µM (inactive)
GI50 (A498): > 100 µM (inactive)
GI50 (HCT-116): > 100 µM (inactive)
GI50 (UO-31): > 100 µM (inactive)
GI50 (PC-3): > 100 µM (inactive)
GI50 (MCF7): > 100 µM (inactive)
GI50 (Hs-578T): > 100 µM (inactive)
GI50 (OVCAR-5): > 100 µM (inactive)
GI50 (IGROV-1): > 100 µM (inactive)
GI50 (K562): > 100 µM (inactive)
GI50 (OVCAR-8): > 100 µM (inactive)
GI50 (SK-OV-3): > 100 µM (inactive)
GI50 (LOX IMVI): > 100 µM (inactive)
GI50 (SF-539): > 100 µM (inactive)
GI50 (TK-10): > 100 µM (inactive)
GI50 (OVCAR-3): > 100 µM (inactive)
GI50 (OVCAR-4): > 100 µM (inactive)
GI50 (NCI-H226): > 100 µM (inactive)
GI50 (M14): > 100 µM (inactive)
GI50 (Malme-3M): > 100 µM (inactive)
GI50 (RPMI-8226): > 100 µM (inactive)
GI50 (UACC-257): > 100 µM (inactive)
GI50 (786-0): > 100 µM (inactive)
GI50 (HOP-92): > 100 µM (inactive)
GI50 (SW-620): > 100 µM (inactive)
GI50 (SF-295): > 100 µM (inactive)
GI50 (HCT-15): > 100 µM
GI50 (CCRF-CEM): > 100 µM (inactive)
GI50 (NCI-H23): > 100 µM (inactive)
GI50 (MDA-MB-231): > 100 µM (inactive)
GI50 (SN12C): > 100 µM (inactive)
GI50 (HL-60): > 100 µM (inactive)
GI50 (UACC-62): > 100 µM (inactive)
GI50 (COLO 205): > 100 µM (inactive)
GI50 (CAKI-1): > 100 µM (inactive)
GI50 (SR): > 100 µM (inactive)
GI50 (SK-MEL-28): > 100 µM (inactive)
GI50 (DU-145): > 100 µM (inactive)
GI50 (HOP-62): > 100 µM (inactive)
GI50 (SNB-19): > 100 µM (inactive)
GI50 (RXF 393): > 100 µM (inactive)
GI50 (SK-MEL-5): > 100 µM (inactive)
GI50 (ACHN): > 100 µM (inactive)
GI50 (BT-549): > 100 µM (inactive)
GI50 (SF-268): > 100 µM (inactive)
GI50 (NCI/ADR-RES): > 100 µM (inactive)
GI50 (U-251): > 100 µM (inactive)
GI50 (KM12): > 100 µM (inactive)
GI50 (EKVX): 76 µM (inactive)
GI50 (MDA-N): > 100 µM (inactive)
GI50 (NCI-H460): > 100 µM (inactive)
GI50 (SNB-75): > 100 µM (inactive)
GI50 (NCI-H522): > 100 µM (inactive)
